The source of these data is US8895499B2, “β-hairpin peptidomimetics” (Polyphor AG, priority 2010, dated 2014).

The subject of data set [1] is human red blood cells (hRBC). It counts as cell-based. To be noted: red cells of human, 1 h. On the procedure:
The peptides were tested for their hemolytic activity against human red blood cells (hRBC). Fresh hRBC were washed three times with phosphate buffered saline (PBS) and centrifuged for 10 min at 2000×g. Compounds (100 μg/mL) were incubated with 20% hRBC (v/v) for 1 h at 37° C. and shaking at 300 rpm. The final erythrocyte concentration was approximately 0.9×10^9 cells/mL. A value of 0% and 100% cell lyses, respectively, was determined by incubation of hRBC in the presence of PBS containing 0.001% acetic acid and 2.5% Triton X-100 in H2O, respectively. The samples were centrifuged, the supernatants were 8-fold diluted in PBS buffer and the optical densities (OD) were measured at 540 nm. The 100% lyses value (OD540H2O) gave an OD50 of approximately 0.5-1.0.
Percent hemolysis was calculated as follows: (OD540peptide/OD540H2O)×100%.

The subject of another data set is Shigella boydii DSM 7532. As to conditions: Mueller-Hinton II broth + 0.02% BSA, 18-20 hours at 37° C. As to the method: […] colony forming units (CFU)/mL. Aliquots (50 μl) of inoculate were added to 50 μl of MH broth+0.02% BSA containing the peptide in serial two-fold dilutions. The following microorganisms were used to determine antibiotic selectivity of the peptides: Bacillus subtilis DSM 10 and Shigella boydii DSM 7532.

The nature of a further data set: in vitro. It counts as cell-based. As to the method:
The cytotoxicity of the peptides to HELA cells (Acc57) and COS-7 cells (CRL-1651) was determined using the MTT reduction assay (T. Mossman, J. Immunol. Meth. 1983, 65, 55-63; M. V. Berridge, A. S. Tan, Arch. Biochem. Biophys. 1993, 303, 474-482). Briefly, the method was as follows: 4000 HELA cells/well and 3400 COS-7 cells/well were seeded and grown in 96-well microtiter plates for 24 h at 37° C. at 5% CO2. Thereafter, time zero (Tz) was determined by MTT reduction (see below). The supernatant of the remaining wells was discarded, and fresh medium and compounds in serial dilutions (12.5, 25 and 50 μg/mL, triplicates) were pipetted into the wells. After incubation of the cells for 48 h at 37° C. at 5% CO2 the supernatant was discarded again and 100 μL MTT reagent (0.5 mg/mL in RPMI1640 and DMEM, respectively)/well was added. Following incubation at 37° C. for 2-4 h the media were aspirated and the cells were spiked (100 μL isopropanol/well). The absorbance of the solubilized formazan was measured at 595 nm (OD595peptide). For each concentration averages were calculated from triplicates. The percentage of growth was calculated as follows: (OD595peptide-OD595Tz-OD595Empty well)/(OD595Tz-OD595Empty well)×100%. The GI50 (Growth Inhibition) concentrations were calculated for each peptide by using a trend line function for the concentrations (50, 25, 12.5 and 0 μg/mL), the corresponding percentages and the value 50, (=TREND (C50:C0%50:%0,50).

As a reminder, the GI50 is the concentration that inhibits growth by half.

Values after ≈ are worked out from the molar mass of the structure shown. Peptide text beside a SMILES is read from it.

As to `CC[C@H](C)[C@@H]1NC(=O)[C@H](CCCNC(=N)N)NC(=O)[C@H](Cc2c[nH]c3ccccc23)NC(=O)[C@@H]2CCCN2C(=O)[C@H]2CCCN2C(=O)[C@H](CCCNC(=N)N)NC(=O)[C@H](CCCNC(=N)N)NC(=O)[C@H](CC(C)C)NC(=O)[C@H](CCN)NC(=O)[C@H](CCCCN)NC(=O)[C@H](CC(N)=O)NC(=O)[C@@H](CCCNC(=N)N)NC(=O)[C@H]([C@@H](C)CC)NC(=O)[C@H](CCCNC(=N)N)NC1=O` [Example 1] (HELM PEPTIDE1{W.R.I.R.I.[dR].N.K.[Dab].L.R.R.[dP].P}$PEPTIDE1,PEPTIDE1,1:R1-14:R2$$$V2.0), the “Hemolysis at 100 μg/mL” value in data set [1] is on record as 0.0%. For the same compound, the “Shigella boydii DSM 7532 MIC” value in the data set on Shigella boydii DSM 7532 amounted to 8 µg/mL. The GI50 at 48 h in the data set “in vitro” (African green monkey) and in “in vitro” (human) was more than 50 µg/mL in each case.

On to `CC[C@H](C)[C@@H]1NC(=O)[C@H](CCCNC(=N)N)NC(=O)[C@H](Cc2c[nH]c3ccccc23)NC(=O)[C@@H]2CCCN2C(=O)[C@H]2CCCN2C(=O)[C@H](CCN)NC(=O)[C@H](CCCNC(=N)N)NC(=O)[C@H](CC(N)=O)NC(=O)[C@H](CCN)NC(=O)[C@H](Cc2c[nH]c3ccccc23)NC(=O)[C@H](CC(N)=O)NC(=O)[C@@H](CCN)NC(=O)[C@H]([C@@H](C)CC)NC(=O)[C@H](CCCNC(=N)N)NC1=O` [Example 17] (HELM PEPTIDE1{W.R.I.R.I.[NCC[C@@H](N[*:1])C(=O)[*:2]].N.W.[Dab].N.R.[Dab].[dP].P}$PEPTIDE1,PEPTIDE1,1:R1-14:R2$$$V2.0), for which the “Hemolysis at 100 μg/mL” value in data set [1] is 0.2%. Further, the “Shigella boydii DSM 7532 MIC” value with Shigella boydii DSM 7532 was found to be 4 µg/mL. Besides, the GI50 at 48 h was 44 µg/mL (≈ 24.6 µM) in the data set “in vitro” (African green monkey) and 38 µg/mL (≈ 21.2 µM) in the data set “in vitro” (human).

`CC[C@H](C)[C@@H]1NC(=O)[C@H](CCCNC(=N)N)NC(=O)[C@H]([C@@H](C)CC)NC(=O)[C@H](CCCNC(=N)N)NC(=O)[C@H](Cc2c[nH]c3ccccc23)NC(=O)[C@@H]2CCCN2C(=O)[C@H]2CCCN2C(=O)[C@H](C)NC(=O)[C@H](CCC(N)=O)NC(=O)[C@H](CC(C)C)NC(=O)[C@H](CCCNC(=N)N)NC(=O)[C@H](CCC(N)=O)NC(=O)[C@H](CC(N)=O)NC(=O)[C@H](CCCN)NC1=O` [Example 9] (HELM PEPTIDE1{W.R.I.R.I.[Orn].N.Q.R.L.Q.A.[dP].P}$PEPTIDE1,PEPTIDE1,1:R1-14:R2$$$V2.0): the “Hemolysis at 100 μg/mL” value in data set [1] was 0.0%. For the same compound, the “Shigella boydii DSM 7532 MIC” value in the data set with Shigella boydii DSM 7532 is more than 16 µg/mL. Besides, the GI50 at 48 h in “in vitro” (African green monkey) and in the data set “in vitro” (human) was more than 50 µg/mL in each case.

On to `CC[C@H](C)[C@@H]1NC(=O)[C@H](CCCNC(=N)N)NC(=O)[C@H](Cc2c[nH]c3ccccc23)NC(=O)[C@@H]2CCCN2C(=O)[C@H]2CCCN2C(=O)[C@H](C)NC(=O)[C@H](CCC(N)=O)NC(=O)[C@H](CC(C)C)NC(=O)[C@H](CCCNC(=N)N)NC(=O)[C@H](CCC(N)=O)NC(=O)[C@H]([C@@H](C)O)NC(=O)[C@@H](CCCNC(=N)N)NC(=O)[C@H]([C@@H](C)CC)NC(=O)[C@H](CCCNC(=N)N)NC1=O` [Example 12] (HELM PEPTIDE1{W.R.I.R.I.[dR].T.Q.R.L.Q.A.[dP].P}$PEPTIDE1,PEPTIDE1,1:R1-14:R2$$$V2.0), for which, in data set [1], the “Hemolysis at 100 μg/mL” value came to 0.7%. Further, the “Shigella boydii DSM 7532 MIC” value in the data set with Shigella boydii DSM 7532 is more than 16 µg/mL. In addition, the GI50 at 48 h in “in vitro” (African green monkey) and in the data set “in vitro” (human) was more than 50 µg/mL in each case.

For `CC[C@H](C)[C@@H]1NC(=O)[C@H](CCCN)NC(=O)[C@H](Cc2c[nH]c3ccccc23)NC(=O)[C@@H]2CCCN2C(=O)[C@H]2CCCN2C(=O)[C@H](C)NC(=O)[C@H](CCC(N)=O)NC(=O)[C@H](CC(C)C)NC(=O)[C@H](CCCNC(=N)N)NC(=O)[C@H](CCC(N)=O)NC(=O)[C@H](CC(N)=O)NC(=O)[C@@H](CCCNC(=N)N)NC(=O)[C@H]([C@@H](C)CC)NC(=O)[C@H](CCCNC(=N)N)NC1=O` [Example 6] (HELM PEPTIDE1{W.[Orn].I.R.I.[dR].N.Q.R.L.Q.A.[dP].P}$PEPTIDE1,PEPTIDE1,1:R1-14:R2$$$V2.0), the “Hemolysis at 100 μg/mL” value in data set [1] is on record as 0.0%. In the data set on Shigella boydii DSM 7532, the “Shigella boydii DSM 7532 MIC” value is more than 16 µg/mL. Moreover, the GI50 at 48 h in “in vitro” (African green monkey) and in the data set “in vitro” (human) was more than 50 µg/mL in each case.

As for `CC[C@H](C)[C@@H]1NC(=O)[C@H](CCCNC(=N)N)NC(=O)[C@H](Cc2c[nH]c3ccccc23)NC(=O)[C@@H]2CCCN2C(=O)[C@H]2CCCN2C(=O)[C@H](C)NC(=O)[C@H](CCC(N)=O)NC(=O)[C@H](Cc2c[nH]c3ccccc23)NC(=O)[C@H](CCCNC(=N)N)NC(=O)[C@H](CCC(N)=O)NC(=O)[C@H](CC(N)=O)NC(=O)[C@@H](CCCNC(=N)N)NC(=O)[C@H]([C@@H](C)CC)NC(=O)[C@H](CCCNC(=N)N)NC1=O` [Example 16] (HELM PEPTIDE1{W.R.I.R.I.[dR].N.Q.R.W.Q.A.[dP].P}$PEPTIDE1,PEPTIDE1,1:R1-14:R2$$$V2.0), the “Hemolysis at 100 μg/mL” value in data set [1] worked out at 0.5%. Besides, the “Shigella boydii DSM 7532 MIC” value with Shigella boydii DSM 7532 stood at 16 µg/mL. Also, the GI50 at 48 h in the data set “in vitro” (African green monkey) and in the data set “in vitro” (human) was more than 50 µg/mL throughout.

On to `CC[C@H](C)[C@@H]1NC(=O)[C@H](CCN)NC(=O)[C@H](Cc2c[nH]c3ccccc23)NC(=O)[C@@H]2CCCN2C(=O)[C@H]2CCCN2C(=O)[C@H](C)NC(=O)[C@H](CCC(N)=O)NC(=O)[C@H](CC(C)C)NC(=O)[C@H](CCCNC(=N)N)NC(=O)[C@H](CCC(N)=O)NC(=O)[C@H](CC(N)=O)NC(=O)[C@@H](CCCNC(=N)N)NC(=O)[C@H]([C@@H](C)CC)NC(=O)[C@H](CCCNC(=N)N)NC1=O` [Example 5] (HELM PEPTIDE1{W.[Dab].I.R.I.[dR].N.Q.R.L.Q.A.[dP].P}$PEPTIDE1,PEPTIDE1,1:R1-14:R2$$$V2.0), for which the “Hemolysis at 100 μg/mL” value in data set [1] stood at 0.0%. Moreover, the “Shigella boydii DSM 7532 MIC” value in the data set with Shigella boydii DSM 7532 turned out to be 16 µg/mL. Besides, the GI50 at 48 h in the data set “in vitro” (African green monkey) and in the data set “in vitro” (human) was more than 50 µg/mL throughout.

As for `CC[C@H](C)[C@@H]1NC(=O)[C@H](CCCNC(=N)N)NC(=O)[C@H]([C@@H](C)CC)NC(=O)[C@H](CCCNC(=N)N)NC(=O)[C@H](Cc2c[nH]c3ccccc23)NC(=O)[C@@H]2CCCN2C(=O)[C@H]2CCCN2C(=O)[C@H](C)NC(=O)[C@H](CCC(N)=O)NC(=O)[C@H](CC(C)C)NC(=O)[C@H](CCCNC(=N)N)NC(=O)[C@H](CCC(N)=O)NC(=O)[C@H](CC(N)=O)NC(=O)[C@H](CCN)NC1=O` [Example 10] (HELM PEPTIDE1{W.R.I.R.I.[Dab].N.Q.R.L.Q.A.[dP].P}$PEPTIDE1,PEPTIDE1,1:R1-14:R2$$$V2.0), the “Hemolysis at 100 μg/mL” value in data set [1] was determined as 0.4%. Moreover, the “Shigella boydii DSM 7532 MIC” value with Shigella boydii DSM 7532 was more than 16 µg/mL. The GI50 at 48 h in “in vitro” (African green monkey) and in the data set “in vitro” (human) was more than 50 µg/mL in each case.

Turning to `CC[C@H](C)[C@@H]1NC(=O)[C@H](CCCNC(=N)N)NC(=O)[C@H](Cc2c[nH]c3ccccc23)NC(=O)[C@@H]2CCCN2C(=O)[C@H]2CCCN2C(=O)[C@H](C)NC(=O)[C@H](CCC(N)=O)NC(=O)[C@H](CC(C)C)NC(=O)[C@H](CCCNC(=N)N)NC(=O)[C@H](CCC(N)=O)NC(=O)[C@H](CC(N)=O)NC(=O)[C@@H](CCCNC(=N)N)NC(=O)[C@H]([C@@H](C)CC)NC(=O)[C@H](CCN)NC1=O` [Example 7] (HELM PEPTIDE1{W.R.I.[Dab].I.[dR].N.Q.R.L.Q.A.[dP].P}$PEPTIDE1,PEPTIDE1,1:R1-14:R2$$$V2.0), in data set [1], the “Hemolysis at 100 μg/mL” value was found to be 0.0%. For the same compound, in the data set with Shigella boydii DSM 7532, the “Shigella boydii DSM 7532 MIC” value was more than 16 µg/mL. The GI50 at 48 h in “in vitro” (African green monkey) and in “in vitro” (human) was more than 50 µg/mL throughout.

As to `CC[C@H](C)[C@@H]1NC(=O)[C@H](CCCNC(=N)N)NC(=O)[C@H](Cc2c[nH]c3ccccc23)NC(=O)[C@@H]2CCCN2C(=O)[C@H]2CCCN2C(=O)[C@H](C)NC(=O)[C@H](CCC(N)=O)NC(=O)[C@H](CC(C)C)NC(=O)[C@H](CCCNC(=N)N)NC(=O)[C@H](CCC(N)=O)NC(=O)[C@H](CCC(N)=O)NC(=O)[C@@H](CCCNC(=N)N)NC(=O)[C@H]([C@@H](C)CC)NC(=O)[C@H](CCCNC(=N)N)NC1=O` [Example 11] (HELM PEPTIDE1{W.R.I.R.I.[dR].Q.Q.R.L.Q.A.[dP].P}$PEPTIDE1,PEPTIDE1,1:R1-14:R2$$$V2.0), the “Hemolysis at 100 μg/mL” value in data set [1] came to 0.0%. The “Shigella boydii DSM 7532 MIC” value in the data set on Shigella boydii DSM 7532 was more than 16 µg/mL. Besides, the GI50 at 48 h in “in vitro” (African green monkey) and in “in vitro” (human) was more than 50 µg/mL throughout.
